Test system: APP/PS1 mice
Assay: Immunohistochemistry of hippocampus, APP/PS1 mice
Type: in vivo, mouse
Method: For an animal model of AD, both sexes of 10- to 18-month-old APP/PS1 mice were maintained and used as previously described.[76],[77] To test the effects of novel H2O2-decomposing enhancers in the AD model, the mice were treated by i.p. injection with KDS12008 (3 mg/kg/day), KDS12017 (3 mg/kg/day), or KDS12025 (3 or 10 mg/kg/day) once per day for 1 or 2 weeks, depending on the experimental protocol. All drugs were dissolved in 200 μl of saline, and the amount of each drug was calculated on the basis of the weight (kg) of the mouse. Moreover, KDS12025 (3 mg/kg/day) was orally administered to the AD model for 2 weeks ad libitum.
The mice were deeply anesthetized with vaporized 1% isoflurane and placed into stereotaxic frames (RWD Life Science, China). Following an incision on the midline of the scalp, a hole was drilled into the skull above the hippocampus. AAV-GFAP104-GFP or AAV-GFAP104-DTR-GFP was bilaterally microinjected into the hippocampal CA1 region (AP, −2.0 mm; ML, ±1.5 mm; DV, −1.65 mm from the bregma). Diphtheria toxin (2 mg/ml) was administered for 16 days as previously described.[77] For shRNA knockdown, AAV-pSicoR-Hbβ-shRNA-mCherry or AAV-pSicoR-Sc-shRNA-mCherry was microinjected into the same coordinate system. A total of 0.8 µl of the virus was injected via a syringe pump (KD Scientific, USA). The injection procedures were implemented before 5 weeks of the experiments. For cell type-specific knockdown, AAV-pSico-Hbβ-shRNA-GFP or AAV-pSico-Sc-shRNA-GFP was combined with either AAV-CaMKII-Cre-mCherry for neuronal targeting or AAV-GFAP-Cre-mCherry for astrocyte targeting. The viruses were bilaterally injected into the hippocampus and substantia nigra via the same stereotaxic coordinates and injection procedures. All viruses used in this study were produced at the Institute for Basic Science virus facility (IBS virus facility, Korea). To investigate the effects of 0.1 mg/kg/day KDS12025, GiD mice were injected with diphtheria toxin (2 mg/ml) daily for 16 days. Concurrently, KDS12025 was administered ad libitum (0.1 mg/kg/day) during the same period.
The mice were deeply anesthetized with 2% isoflurane and positioned on the operating table. After the abdomen was opened and the heart was exposed, the […] were perfused with saline, followed by 4% paraformaldehyde (PFA) in 0.1 M PBS. The mice were decapitated, and the brains were excised from the skull. Excised brains were postfixed in 4% PFA overnight at 4 °C and dehydrated in 30% sucrose for 48 h. Coronal hippocampal sections were cut at 30 µm thickness with a cryostat and stored in storage solution. For the ALS experiments, lumbar spinal cords (L2–L5) were also carefully dissected and immediately immersed in 4% PFA for postfixation. The sections were fully washed in 0.1 M PBS and incubated for 1 h in blocking solution (0.3% Triton X-100, 2% donkey and goat serum in 0.1 M PBS). Next, a mixture of primary antibodies in the blocking solution was used for immunostaining on a shaker overnight at 4 °C. The sections were washed in PBS three times. After washing, the sections were incubated with the corresponding fluorescent secondary antibodies for 1 h at RT. DAPI staining was performed by adding a DAPI solution (1:2000) during the second washing step. After the washing step was complete, the sections were mounted on cover slides with mounting medium. A series of fluorescence images were obtained with an LSM900 (Zeiss, Germany) confocal microscope or Lattice SIM Elyra 7 (Zeiss, Germany). The 15–22 μm Z stack images in 1–2 μm steps were processed for image analysis, which was performed via the ImageJ (NIH, US) and ZEN digital imaging for light microscopy blue system (Zeiss, Germany) programs.

## CNc1ccc(NCCc2ccccc2OC)cc1.Cl [KDS12025, N^1-(2-methoxyphenethyl)-N^4-methylbenzene-1,4-diamine hydrochloride salt]
3 mg/kg/day ad libitum, Fig. 5e
  mean Hbβ intensity in GFAP-positive areas: WT (70.03±1.523, n=55), APP (62.3±1.219, n=65), APP+KDS12025 (ad libitum) (68.67±2.358, n=54) One-way ANOVA with Tukey's multiple comparisons test, F(2,171) = 6.123, p = 0.003 WT vs. APP, p = 0.004; WT vs. APP+KDS12025 (ad libitum), p = 0.85; APP vs. APP+KDS12025 (ad libitum), p = 0.02
3 mg/kg/day ad libitum, Fig. 5f
  mean GFAP intensity in GFAP-positive areas: WT (61.01±2.28, n=6), APP (114.3±9.536, n=6), APP+KDS12025 (ad libitum) (64.48±6.98, n=6) One-way ANOVA with Tukey's multiple comparisons test, F(2,14) = 17.24, p < 0.001 WT vs. APP, p < 0.001; WT vs. APP+KDS12025 (ad libitum), p = 0.89; APP vs. APP+KDS12025 (ad libitum), p < 0.001
3 mg/kg/day ad libitum, Fig. 5g
  Sholl analysis, sum of intersections: WT (31.45±3.606, n=11), APP (63.19±5.017, n=16), APP+KDS12025 (ad libitum) (33.69±3.3, n=13) One-way ANOVA with Tukey's multiple comparisons test, F(2,37) = 18.10, p < 0.001 WT vs. APP, p < 0.001; WT vs. APP+KDS12025 (ad libitum), p = 0.94; APP vs. APP+KDS12025 (ad libitum), p < 0.001
3 mg/kg/day ad libitum, Fig. 5i
  Sholl analysis, ending radius: WT (110.0±6.606, n=11), APP (135.6±5.625, n=16), APP+KDS12025 (ad libitum) (103.1±7.794, n=13) One-way ANOVA with Tukey's multiple comparisons test, F(2,37) = 7.249, p = 0.002 WT vs. APP, p = 0.03; WT vs. APP+KDS12025 (ad libitum), p = 0.77; APP vs. APP+KDS12025 (ad libitum), p = 0.003
3 mg/kg/day ad libitum, Fig. 5j
  Sholl analysis, number of intersections: Two-way ANOVA with Tukey's multiple comparison test, F (2,378) = 37.72, p < 0.001 WT (2.028, n=12), APP (4.318, n=17), APP+KDS12025 (ad libitum) (2.392, n=12) WT vs. APP, p < 0.001 (***); WT vs. APP+KDS12025 (ad libitum), p = 0.52; APP vs. APP+KDS12025 (ad libitum), p < 0.001 (^###)
3 mg/kg/day ad libitum, Fig. 5h
  Sholl analysis, ramification index: WT (1.617±0.2177, n=11), APP (7.134±1.523, n=16), APP+KDS12025 (ad libitum) (2.808±0.6584, n=13) One-way ANOVA with Tukey's multiple comparisons test, F(2,37) = 6.945, p = 0.003 WT vs. APP, p = 0.004; WT vs. APP+KDS12025 (ad libitum), p = 0.76; APP vs. APP+KDS12025 (ad libitum), p = 0.02
3 mg/kg/day ad libitum, Fig. S11c
  mean intensity of GABA in GFAP-positive area: WT (41.73±1.1951, n=19), APP (50.90±1.074, n=41), APP+KDS12025 (ad libitum) (44.45±1.015, n=28) One-way ANOVA with Tukey's multiple comparisons test, F(2,85) = 14.24, p < 0.001 WT vs. APP, p < 0.001; WT vs. APP+KDS12025 (ad libitum), p = 0.38; APP vs. APP+KDS12025 (ad libitum), p < 0.001
3 mg/kg/day ad libitum, Fig. S11d
  mean intensity of 8-OHdG in GFAP-positive area: WT (1903±72.86, n=32), APP (2435±66.11, n=58), APP+KDS12025 (ad libitum) (1951±48.61, n=57) One-way ANOVA with Tukey's multiple comparisons test, F(2,144) = 23.42, p < 0.001 WT vs. APP, p < 0.001; WT vs. APP+KDS12025 (ad libitum), p = 0.88; APP vs. APP+KDS12025 (ad libitum), p < 0.001
3 mg/kg/day i.p., Fig. S10e
  mean intensity of Iba1 in the hippocampus: 1343±38.44
3 mg/kg/day i.p., Fig. S10d
  mean intensity of GFAP in the hippocampus: 1190±87.29
3mpk i.p., Fig. S10i
  mean intensity of GFAP in the hippocampus: 59.33±6.459
10mpk i.p., Fig. S10i
  mean intensity of GFAP in the hippocampus: 56.71±4.775
APP+ScRNA+KDS12025, Fig. 6i
  GFAP-positive area: 142.4±8.715
APP+ScRNA+KDS12025, Fig. 6j
  GFAP intensity: 124.3±1.773
APP+ScRNA+KDS12025, Fig. 6h
  Hbβ intensity in GFAP-positive areas: 10.10±0.4531
APP+ScRNA+KDS12025, Fig. S16e
  Sholl analysis, sum of intersections: 142.4±8.715
APP+ScRNA+KDS12025, Fig. S16f
  Sholl analysis, ending radius: 54.48±2.319
APP+ScRNA+KDS12025, Fig. S16g
  Sholl analysis, number of intersections: 4.984±0.7027
APP+shHbβ+KDS12025, Fig. 6i
  GFAP-positive area: 234.3±16.93
APP+shHbβ+KDS12025, Fig. 6j
  GFAP intensity: 146.8±2.262
APP+shHbβ+KDS12025, Fig. 6h
  Hbβ intensity in GFAP-positive areas: 6.275±0.4473
APP+shHbβ+KDS12025, Fig. S16e
  Sholl analysis, sum of intersections: 234.3±16.93
APP+shHbβ+KDS12025, Fig. S16f
  Sholl analysis, ending radius: 100.4±6.075
